Assay results reported in EP0745595A1, “3-(3-Aryloxyphenyl)-1-(substituted methyl)-s-triazine-2,4,6-oxo or thiotrione herbicidal agents” (American Cyanamid Company, priority 1995, dated 1996).

Legend:
Assay type in all cases: in vivo
GALIUM APARINE [1] = assay: Postemergence herbicidal evaluation, GALAP (Galium); set-up: key to GALAP rating / Herbicidal effect rating, GALAP / GALAP: 0-9 visual rating scale vs untreated control; conditions: for GALAP, herbicide rating (0-9): rated four to five weeks after treatment, averaged
In short: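 Galium (GALAP) seedlings were raised in jiffy flats for about two weeks, then sprayed with test compounds dispersed in 50/50 acetone/water containing 0.5% TWEEN®20, delivered through a nozzle at 40 psi. Plants were kept on greenhouse benches and visually rated 0-9 against a control four to five weeks later; repeat tests were averaged.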

[2] = tested on: GLYCINE MAX(L) MERR. CV. WILLIAMS; assay: Postemergence herbicidal evaluation, GLXMAW (Soybean, Williams); set-up: key to GLXMAW rating / Herbicidal effect rating, GLXMAW / GLXMAW: 0-9 visual rating scale vs untreated control
In short: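 Soybean seedlings (Williams) were raised in jiffy flats for roughly two weeks, then sprayed postemergence through a nozzle at 40 psi with test compound dispersed in 50/50 acetone/water containing 0.5% TWEEN®20. Treated plants were kept on greenhouse benches under normal care and visually rated on a 0-9 scale four to five weeks later.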

[3] = tested on: ORYZA SATIVA, L. TEBONNET; assay: Postemergence herbicidal evaluation, ORYSAT (Rice, Tebonnet); set-up: key: 0-9 visual rating scale vs untreated control
In short: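 Rice (Tebonnet) seedlings raised in jiffy flats for roughly two weeks were sprayed postemergence at 40 psi with compound dispersed in 50/50 acetone/water containing 0.5% TWEEN®20. The plants were then kept on greenhouse benches under standard care and visually scored on a 0-9 scale against a control four to five weeks after treatment.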

GALIUM APARINE [4] = assay: Preemergence herbicidal evaluation, GALAP (Galium); conditions: for GALAP herbicidal rating: rated four to five weeks after treatment; for GALAP rating: four to five weeks after treatment
In short: (§1)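 Preemergence, greenhouse: seed + potting soil sown on ~1 inch soil in cups; aqueous acetone spray, ~0.125–0.50 kg/ha equivalent; rated 0-9 vs control at 4–5 wk.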

[5] = tested on: ECHINOCHLOA ORYZOIDES (ARD.)FRITSCH; assay: Preemergence weed control under flooded paddy conditions, ECHORC (Watergrass (Calif.)); conditions: for Herbicidal effect rating, ECHORC: preemergence, 3-4 weeks after treatment; for ECHORC: pre-weed
In short: (§2)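 Flooded paddy preemergence test: seeds/propagating organs in top 0.5 cm silt loam, water held 1.5-3 cm above soil. Dosing by pipette into flood water, aqueous/acetone 50/50 v/v, ~0.5, 0.25, 0.125, 0.063 kg/ha a.i. Greenhouse; read at 3-4 wk, 0-9 visual scale.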

[…], PRESL. = Preemergence weed control under flooded paddy conditions, MOOVA (Monochoria); conditions: for Herbicidal effect rating, MOOVA: preemergence, 3-4 weeks after treatment; for MOOVA: pre-weed
In short: as §2

[6] = tested on: ABUTILON THEOPHRASTI, MEDIC.; assay: Preemergence herbicidal evaluation, ABUTH (Velvetleaf); conditions: Rate 0.500 kg/ha, rated four to five weeks after treatment
In short: as §1

CASSIA OBTUSIFOLIA, L. = assay: Preemergence herbicidal evaluation, CASOB (Sicklepod); conditions: Rate 0.500 kg/ha, rated four to five weeks after treatment
In short: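 Seeds of various monocot and dicot plants, including sicklepod, were each mixed with potting soil and sown on roughly one inch of soil in separate pint cups for preemergence testing. Treated cups were kept on greenhouse benches, watered and maintained conventionally. Four to five weeks after treatment, each cup was visually rated on a 0-9 scale against a control.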

[7] = tested on: GLYCINE MAX(L) MERR. CV. WILLIAMS; assay: Preemergence herbicidal evaluation, GLXMAW (Soybean, Williams); conditions: Rate 0.500 kg/ha, rated four to five weeks after treatment
In short: as §1

ZEA MAYS L. = assay: Preemergence herbicidal evaluation, ZEAMX (Corn, Field); conditions: Rate 0.500 kg/ha, rated four to five weeks after treatment
In short: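 Corn (Zea mays) seeds were mixed with potting soil and planted on about one inch of soil in pint cups, then treated preemergence. Cups were kept on greenhouse benches, watered and maintained conventionally, and after four to five weeks were visually rated on a 0-9 scale versus an untreated control.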

CYPERUS IRIA = assay: Preemergence weed control under flooded paddy conditions, CYPIR (Rice Flatsedge); conditions: 0.500 kg/ha, preemergence, 3-4 weeks after treatment
In short: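 Seeds or propagating organs of rice flatsedge were planted in the top 0.5 cm of silt loam soil in 32 oz. plastic containers, 10.5 cm across and without drainage holes. Water was kept 1.5 to 3 cm above the soil throughout. Treated containers were kept on greenhouse benches, and herbicidal effect was visually rated on a 0-9 scale against a control.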

[8] = tested on: CYPERUS SEROTINUS, ROTTB.; assay: Preemergence weed control under flooded paddy conditions, CYPSE (Flatsedge); conditions: 0.500 kg/ha, preemergence, 3-4 weeks after treatment
In short: as §2

SAGITTARIA PYGMAEA, L. = assay: Preemergence weed control under flooded paddy conditions, SAGPY (Arrowhead (Pygmaea)); conditions: for SAGPY: pre-weed; for SAGPY herbicidal rating: preemergence weeds, rated three to four weeks after treatment
In short: as §2

## COC(=O)Cn1c(=O)n(C)c(=O)n(-c2cc(Oc3c(F)cc(C(F)(F)F)cc3Cl)ccc2[N+](=O)[O-])c1=O [Compound 16, Methyl 3-{5-[(2-chloro-α,α,α,6-tetrafluoro-p-tolyl)oxy]-2-nitrophenyl}tetrahydro-5-methyl-2,4,6-trioxo-s-triazine-1(2H)-acetate]
GALIUM APARINE [1]; Rate 0.008 kg/ha
  GALAP: 4.5
GALIUM APARINE [1]; Rate 0.016 kg/ha
  GALAP: 6.0
GALIUM APARINE [1]; Rate 0.031 kg/ha
  GALAP: 8.0
GALIUM APARINE [1]; Rate 0.063 kg/ha
  GALAP: 9.0
GALIUM APARINE [1]; Rate 0.125 kg/ha
  GALAP: 9.0
  GALAP, herbicide rating (0-9): 9.0
GALIUM APARINE [1]; Rate 0.250 kg/ha
  GALAP, herbicide rating (0-9): 9.0
GALIUM APARINE [1]; Rate 0.500 kg/ha
  GALAP, herbicide rating (0-9): 9.0
[2]; Rate 0.008 kg/ha
  GLXMAW: 3.3
[2]; Rate 0.016 kg/ha
  GLXMAW: 3.8
[2]; Rate 0.031 kg/ha
  GLXMAW: 4.6
[2]; Rate 0.063 kg/ha
  GLXMAW: 5.1
[2]; Rate 0.125 kg/ha
  GLXMAW: 5.6
[3]; Rate 0.008 kg/ha
  ORYSAT: 4.0
[3]; Rate 0.016 kg/ha
  ORYSAT: 6.0
[3]; Rate 0.031 kg/ha
  ORYSAT: 5.3
[3]; Rate 0.063 kg/ha
  ORYSAT: 5.3
[3]; Rate 0.125 kg/ha
  ORYSAT: 5.8
GALIUM APARINE [4]; Rate 0.031 kg/ha
  GALAP: 9.0
GALIUM APARINE [4]; Rate 0.063 kg/ha
  GALAP: 9.0
GALIUM APARINE [4]; Rate 0.125 kg/ha
  GALAP: 9.0
  GALAP herbicidal rating: 9.0
GALIUM APARINE [4]; Rate 0.250 kg/ha
  GALAP: 9.0
  GALAP herbicidal rating: 9.0
GALIUM APARINE [4]; Rate 0.500 kg/ha
  GALAP herbicidal rating: 9.0
[5]; 0.063 kg/ha
  Herbicidal effect rating, ECHORC: 9.0
[5]; 0.125 kg/ha
  Herbicidal effect rating, ECHORC: 9.0
[5]; 0.250 kg/ha
  Herbicidal effect rating, ECHORC: 9.0
[5]; 0.500 kg/ha
  Herbicidal effect rating, ECHORC: 9.0
[5]; Rate 0.031 kg/ha
  ECHORC: 9.0
[5]; Rate 0.063 kg/ha
  ECHORC: 9.0
[5]; Rate 0.125 kg/ha
  ECHORC: 9.0
[5]; Rate 0.250 kg/ha
  ECHORC: 9.0
[…], PRESL.; 0.063 kg/ha
  Herbicidal effect rating, MOOVA: 9.0
[…], PRESL.; 0.125 kg/ha
  Herbicidal effect rating, MOOVA: 9.0
[…], PRESL.; 0.250 kg/ha
  Herbicidal effect rating, MOOVA: 9.0
[…], PRESL.; 0.500 kg/ha
  Herbicidal effect rating, MOOVA: 9.0
[…], PRESL.; Rate 0.031 kg/ha
  MOOVA: 9.0
[…], PRESL.; Rate 0.063 kg/ha
  MOOVA: 9.0
[…], PRESL.; Rate 0.125 kg/ha
  MOOVA: 9.0
[…], PRESL.; Rate 0.250 kg/ha
  MOOVA: 9.0

## COC(=O)Cn1c(=O)n(C)c(=O)n(-c2cc(Oc3cc(Cl)cc(Cl)c3)ccc2[N+](=O)[O-])c1=O [Compound 35, Methyl 3-[5-(3,5-dichlorophenoxy)-2-nitrophenyl]tetrahydro-5-methyl-2,4,6-trioxo-s-triazine-1(2H)-acetate]
GALIUM APARINE [1]; Rate 0.125 kg/ha
  GALAP rating: 0.0
GALIUM APARINE [1]; Rate 0.250 kg/ha
  GALAP rating: 0.0
GALIUM APARINE [1]; Rate 0.500 kg/ha
  GALAP rating: 0.0
[6]
  ABUTH herbicidal rating: 0.0
CASSIA OBTUSIFOLIA, L.
  CASOB herbicidal rating: 0.0
GALIUM APARINE [4]; Rate 0.500 kg/ha
  GALAP herbicidal rating: 0.0
[7]
  GLXMAW herbicidal rating: 1.0
ZEA MAYS L.
  ZEAMX herbicidal rating: 0.0
[5]; 0.500 kg/ha
  Herbicidal effect rating, ECHORC: 0.0
CYPERUS IRIA
  Herbicidal effect rating, CYPIR: 0.0
[8]
  Herbicidal effect rating, CYPSE: 0.0
[…], PRESL.; 0.500 kg/ha
  Herbicidal effect rating, MOOVA: 0.0
SAGITTARIA PYGMAEA, L.; 0.500 kg/ha, preemergence, 3-4 weeks after treatment
  Herbicidal effect rating, SAGPY: 0.0

## COC(=O)Cn1c(=O)n(C)c(=O)n(-c2cc(Oc3ccc(C(F)(F)F)cc3Cl)ccc2[N+](=O)[O-])c1=O [Compound 3, Methyl 3-{5-[(2-chloro-α,α,α-trifluoro-p-tolyl)oxy]-2-nitrophenyl}tetrahydro-5-methyl-2,4,6-trioxo-s-triazine-1(2H)-acetate]
GALIUM APARINE [1]; 0.031 kg/ha
  Herbicidal effect rating, GALAP: 8.2
GALIUM APARINE [1]; 0.063 kg/ha
  Herbicidal effect rating, GALAP: 8.3
GALIUM APARINE [1]; 0.125 kg/ha
  Herbicidal effect rating, GALAP: 8.7
GALIUM APARINE [1]; 0.250 kg/ha
  Herbicidal effect rating, GALAP: 8.4
[2]; 0.031 kg/ha
  Herbicidal effect rating, GLXMAW: 4.8
[2]; 0.063 kg/ha
  Herbicidal effect rating, GLXMAW: 5.3
[2]; 0.125 kg/ha
  Herbicidal effect rating, GLXMAW: 5.9
[2]; 0.250 kg/ha
  Herbicidal effect rating, GLXMAW: 6.3
[3]; 0.031 kg/ha
  Herbicidal effect rating, ORYSAT: 4.9
[3]; 0.063 kg/ha
  Herbicidal effect rating, ORYSAT: 5.1
[3]; 0.125 kg/ha
  Herbicidal effect rating, ORYSAT: 5.7
[3]; 0.250 kg/ha
  Herbicidal effect rating, ORYSAT: 6.6
GALIUM APARINE [4]; Rate 0.125 kg/ha
  GALAP rating: 7.3
GALIUM APARINE [4]; Rate 0.250 kg/ha
  GALAP rating: 8.4
GALIUM APARINE [4]; Rate 0.500 kg/ha
  GALAP rating: 9.0
SAGITTARIA PYGMAEA, L.; Rate 0.031 kg/ha
  SAGPY: 0.0
SAGITTARIA PYGMAEA, L.; Rate 0.063 kg/ha
  SAGPY: 0.0
  SAGPY herbicidal rating: 0.0
SAGITTARIA PYGMAEA, L.; Rate 0.125 kg/ha
  SAGPY: 0.0
  SAGPY herbicidal rating: 0.0
SAGITTARIA PYGMAEA, L.; Rate 0.250 kg/ha
  SAGPY: 0.0
  SAGPY herbicidal rating: 0.0
SAGITTARIA PYGMAEA, L.; Rate 0.500 kg/ha
  SAGPY herbicidal rating: 0.0
